Read-outs that look alike come from different tables or passages of the source.
How the values were obtained:
[1] = system: Human colorectal cancer cell line HCT116; test: Test 1 of anti-proliferative activity against tumor cells (Cell-Titer Glo); assay type: cell-based
Summary of the method: (§1)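 HCT116, SKBR3 and OVCAR3 cells seeded 24 h, then treated with 9-point 3-fold dilutions (final 0-300 nM); HCT116 incubated 3 days, SKBR3 and OVCAR3 5 days at 37° C, 5% CO2. Viability by Cell-Titer Glo luminescence, inhibition normalised to DMSO and no-cell wells, IC50 fitted.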

[2] = system: human ovarian cancer cell line OVCAR3; test: as above; assay type: cell-based
Summary of the method: as §1

[3] = system: human breast cancer cell line SKBR3; test: as above; assay type: cell-based
Summary of the method: as §1

[4] = Plasma protein binding rate (equilibrium dialysis); assay type: in vitro ADME, human; conditions: pH 7.4
Description: The protein binding rates of the compounds of the present disclosure in human and mouse plasma were determined by the following experimental method.
• 1. Human plasma (BioIVT), CD-1 mouse plasma (BiolVT) • 2. Na2HPO4 (Sigma S5136-500G) • 3. NaH2PO4 (Sigma 53139-500G) • 4. NaCl (Sigma S5886-IKG) • 5. 96-well equilibrium dialysis plate (HTDialysis LLC, Gales Ferry, CT, HTD96B) and equilibrium dialysis membrane (MWCO 12-14K, 1101) • 6. Positive control compound warfarin • 7. ABI QTrap 5500 liquid chromatography-mass spectrometry
• 1. Preparation of a buffer with a concentration of 100 mM sodium phosphate and 150 mM NaCl: An alkaline solution with a concentration of 14.2 g/L Na2HPO4 and 8.77 g/L NaCl was prepared with ultrapure water, and an acidic solution with a concentration of 12.0 g/L NaH2PO4 and 8.77 g/L NaCl was prepared with ultrapure water. Then the alkaline solution was titrated to pH 7.4 with the acidic solution to prepare a buffer with a concentration of 100 mM sodium phosphate and 150 mM NaCl. • 2. Preparation of dialysis membrane: The dialysis membrane was soaked in ultrapure water for 60 min to separate the membrane into two pieces, then soaked in 20% ethanol for 20 min, and finally soaked in a buffer used for dialysis for 20 min. • 3. Preparation of plasma: The frozen plasma was quickly thawed at room temperature, and then centrifuged at 3220 g for 10 min at 4° C. to remove clots, and the supernatant was collected into a new centrifugal tube. The pH of the plasma was determined and recorded, and the plasma with pH of 7-8 was used. • 4. Preparation of compound-containing plasma samples: The 10 mM stock solution of the compound of the present invention or the positive control compound was diluted with DMSO to obtain a 200 μM working solution. To 597 μl of human or mouse plasma was added 3 μl of 200 μM compound working solution to obtain a plasma sample with a final concentration of 1 μM. • 5. […]
The peak areas of the compound on the buffer side and the plasma side were determined. […]

[5] = Homo sapiens, HCT-116, 72 h, read-out: HCT116 Anti-proliferative activity IC50 (nM), HCT116 cells, cultured 3 days with compound, Cell-Titer Glo
[6] = Homo sapiens, OVCAR-3, 120 h, OVCAR3 cells, cultured 5 days with compound, Cell-Titer Glo, read-out: OVCAR3 Anti-proliferative activity IC50
[7] = Homo sapiens, SK-BR-3, 120 h, read-out: SKBR3 Anti-proliferative activity IC50 (nM), SKBR3 cells, cultured 5 days with compound, Cell-Titer Glo
[8] = Homo sapiens, HCT-116, 72 h, HCT116 cells, cultured 3 days with compound, Cell-Titer Glo, read-out: HCT116 Anti-proliferative activity IC50
[9] = Homo sapiens, SK-BR-3, 120 h, SKBR3 cells, cultured 5 days with compound, Cell-Titer Glo, read-out: SKBR3 Anti-proliferative activity IC50

CC[C@@]1(O)C(=O)OCc2c1cc1n(c2=O)Cc2c-1nc1cc3c(cc1c2CNC(=O)C(O)C1CC1)OCO3 (single isomer, unassigned) [Compound 14-P1]
IC50 [1, 5]: 9.8 nM | IC50 [2, 6]: 0.6 nM | IC50 [3, 7]: 2.1 nM | fraction unbound at 6 h, 1 μM ([4]; human plasma, 1 μM, equilibrium dialysis 6 h, 37° C., read-out: % Human plasma protein binding rate (converted)): 0.106

CC[C@@]1(O)C(=O)OCc2c1cc1n(c2=O)Cc2c-1nc1cc3c(cc1c2CNC(=O)C(O)C1CC1)OCO3 (single isomer, unassigned) [Compound 14-P2]
IC50 ([1]; read-out: HCT116 Anti-proliferative activity IC50, HCT116 cells, cultured 3 days with compound, Cell-Titer Glo): 12.4 nM | IC50 ([2]; OVCAR3 cells, cultured 5 days with compound, Cell-Titer Glo, read-out: OVCAR3 Anti-proliferative activity IC50): 1 nM | IC50 ([3]; read-out: SKBR3 Anti-proliferative activity IC50, SKBR3 cells, cultured 5 days with compound, Cell-Titer Glo): 3.5 nM

CC[C@@]1(O)C(=O)OCc2c1cc1n(c2=O)Cc2c-1nc1cc3c(c(F)c1c2CNC(=O)[C@@H](O)C1CC1)OCO3 (single isomer, unassigned) [Compound 37-P1]
IC50 [1, 8]: 4.8 nM | IC50 [2, 6]: 0.5 nM | IC50 [3, 9]: 2.1 nM | fraction unbound at 6 h, 1 μM ([4]; human, plasma): 0.128

CC[C@@]1(O)C(=O)OCc2c1cc1n(c2=O)Cc2c-1nc1cc3c(cc1c2CNC(=O)C(O)C1CC1)OCO3 (stereo partly drawn) [Compound 14, 2-cyclopropyl-N-(((S)-7-ethyl-7-hydroxy-8,11-dioxo-7,8,11,13-tetrahydro-10H-[1,3]dioxolo[4,5-g]pyrano[3′,4′:6,7]indolizino[1,2-b]quinolin-14-yl)methyl)-2-hydroxyacetamide]
IC50 [1, 5]: 8.4 nM | IC50 ([2]; Homo sapiens, OVCAR-3, 120 h, read-out: OVCAR3 Anti-proliferative activity IC50 (nM)): 0.9 nM | IC50 [3, 7]: 2.2 nM

[2H]C1([2H])Oc2cc3nc4c(c(CNC(=O)C(O)C5CC5)c3cc2O1)Cn1c-4cc2c(c1=O)COC(=O)[C@]2(O)CC (stereo partly drawn) [Compound 39, 2-cyclopropyl-N-(((S)-7-ethyl-7-hydroxy-8,11-dioxo-7,8,11,13-tetrahydro-10H-[1,3]dioxolo[4,5-g]pyrano[3′,4′:6,7]indolizino[1,2-b]quinolin-14-yl-2,2-d2)methyl)-2-hydroxyacetamide]
IC50 [1, 8]: 9.5 nM | IC50 [2, 6]: 1 nM | IC50 [3, 9]: 2.9 nM | fraction unbound at 6 h, 1 μM ([4]; human, plasma): 0.081

— patent US20250270227A1, “CAMPTOTHECIN DERIVATIVE, AND PHARMACEUTICAL COMPOSITION AND USE THEREOF” (SIMCERE ZAIMING PHARMACEUTICAL CO., LTD., priority 2021, published 2025)
